These results are taken from patent publication US20150126530A1, “Novel Substituted Imidazopyrimidines as Gpbar1 Receptor Modulators” (Torrent Pharmaceuticals Limited., priority 2011, published 2015).

Each structure is given as a SMILES string.

For one assay, the system named is Diabetic Hamster. The assay can be described thus: Single dose efficacy on glucose tolerance (OGTT) in diabetic hamster. Type of assay: in vivo. As to conditions: Mesocricetus auratus, read-out: Decrease in AUC of glucose % change w.r.t. vehicle control group; for inhibition in vivo at 36 mg/kg: single oral dose 36 mg/kg; for inhibition in vivo at 41 mg/kg: single oral dose 41 mg/kg. The procedure:
i) Evaluation of Single Dose Efficacy of Test Compounds on Glucose Tolerance:
Thus efficacy can be assessed through the effect of test compounds on lowering of plasma glucose during OGTT through stimulating glucose stimulated insulin secretion.
The potential of test compounds in lowering of Plasma Glucose was evaluated in Oral glucose tolerance test (OGTT) in Diabetic Hamster Model, where diabetes has been induced by administration of low dose of Streptozotocin (STZ) to the High fat diet (HFD) fed glucose intolerant animals. The diabetic hamsters show impaired glucose stimulated insulin secretion and higher plasma glucose excursions than the normal animals, which remains elevated beyond 2 hrs post glucose load. Thus the animal model can be used for evaluating the potential of test compounds to lower plasma glucose through stimulating glucose stimulated insulin secretion. On the day of study post 6 hrs of fasting, test compounds or vehicle was administered orally at dose volume of 2 ml/kg to the hamsters of the respective treatment groups. Subsequent to dosing, a pre-glucose load blood sample was taken. A glucose load of 40% solution at 5 ml/Kg dose volume was administered orally. Blood samples through retroorbital plexus were taken at 15, 30 60 & 120 min. post glucose load and plasma was separated for glucose measurement. Post glucose load percentage change in plasma glucose and AUC of % change glucose by the treatment was assessed.

For assay [1], the target named is T1, human TGR5 (Homo sapiens, UniProt Q8TDU6).
T1 construct: host or cells: CHO cells (ATCC)
T1 sequence (Q8TDU6 1-330): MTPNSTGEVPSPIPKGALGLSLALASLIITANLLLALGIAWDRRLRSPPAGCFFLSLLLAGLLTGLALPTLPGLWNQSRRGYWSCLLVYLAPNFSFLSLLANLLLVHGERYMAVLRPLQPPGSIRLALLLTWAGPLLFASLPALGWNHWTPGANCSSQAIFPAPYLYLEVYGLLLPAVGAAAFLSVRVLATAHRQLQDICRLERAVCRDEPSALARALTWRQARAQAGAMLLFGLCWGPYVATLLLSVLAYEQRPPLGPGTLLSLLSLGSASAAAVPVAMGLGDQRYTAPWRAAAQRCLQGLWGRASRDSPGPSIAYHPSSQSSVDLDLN
The assay can be described thus: cAMP Responsive Element (CRE)-Reporter Assay. It is filed as cell-based. The following applies: luciferase activity relative to vehicle control, five hours, CHO cells transfected with human TGR5 and CRE-luciferase. The procedure: (A) cAMP Responsive Element (CRE)-Reporter Assay:
CHO cells (ATCC) were transfected with human TGR5 (oriGene) and CRE-luciferase reporter vector. Transfected cells were treated with vehicle control or test compounds (Conc 10 μM) for five hours and then lysed. Cell lysates were monitored for luciferase acivity. Increase in luciferase activity is considered as a result of TGR5 activation. Results were expressed as fold induction as compared to vehicle control.
Results are summarized in Table 2 where, + indicates 1.5-2 fold while ++, +++, ++++ indicate 2-3 fold, 3-4 fold, and >4 fold induction respectively relative to vehicle control when tested at 10 μM concentration.
(In a reporter assay the amount or activity of a reporter protein is the signal.)

Assay [2] deals with T1, human TGR5. As to the kind of experiment: cAMP Measurement Assay (Alphascreen). It is filed as cell-based. As to conditions: cAMP levels, CHO cells transfected with human TGR5, one hour. The procedure:
(B) cAMP Measurement Assay:
CHO cells (ATCC) were transfected with human TGR5 vector (oriGene). Transfected cells were treated with vehicle control or test compounds for one hour and then lysed. Levels of cAMP were measured in cell lysates employing Alphascreen cAMP assay kit (Perkin Elmer) and results were expressed EC50 values which are summarized in Table 3.
On the technique in general: Bead proximity is the source of the signal in Alpha formats.

The test system of assay [3] is Human enteroendocrine cell-line (NCI-H716). The assay can be described thus: Measurement of Glucagon Like Peptide-1 (GLP-1) secretion. As to conditions: NCI-H716 cells, one hour, with respect to vehicle control. Type of assay: cell-based. The procedure:
(C) Measurement of Glucagon Like Peptide-1 (GLP-1):
Human enteroendocrine cell-line (NCI-H716) were incubated with vehicle or test compounds for one hour. At the end of incubation period, levels of secreted GLP-1 in culture medium were measured by GLP-1 ELISA kit (Millipore). Results are summarized as fold increase in GLP secretion with respect to vehicle control in Table 4.

Consider `CN(C(=O)c1c(-c2ccccc2)nc2ncccn12)c1ccc(Cl)cc1` [Compound no. 1, N-(4-chlorophenyl)-N-methyl-2-phenylimidazo[1,2-a]pyrimidine-3-carboxamide], for which the inhibition in vivo at 36 mg/kg with Diabetic Hamster was 33%. The fold induction (in general, the ratio of treated to control signal) at 10 µM on human TGR5 [1] is above 4. Besides, the 50% effective concentration (EC50) (as a rule, the concentration that produces a half-maximal response) at human TGR5 [2] came to 35 nM. With `CN(C(=O)c1c(-c2ccc(F)cc2)nc2ncccn12)c1ccc(F)cc1` [Compound no. 22, N,2-bis(4-fluorophenyl)-N-methylimidazo[1,2-a]pyrimidine-3-carboxamide], in the assay with Diabetic Hamster, the inhibition in vivo at 36 mg/kg turned out to be 20%. In addition, on human TGR5 [1], the fold induction at 10 µM is 3 to 4. The “Fold increase in GLP Release” value in assay [3] is 2.13 fold. Turning to `CN(C(=O)c1c(-c2ccc3c(c2)OCO3)nc2ncccn12)c1ccc(F)cc1` [Compound no. 28, 2-(1,3-benzodioxol-5-yl)-N-(4-fluorophenyl)-N-methylimidazo[1,2-a]pyrimidine-3-carboxamide], the inhibition in vivo at 39 mg/kg with Diabetic Hamster (single oral dose 39 mg/kg) came to 5%. Also, the fold induction at 10 µM at human TGR5 [1] is 2 to 3. Besides, in assay [3], the “Fold increase in GLP Release” value worked out at 2.03 fold. With `CN(C(=O)c1c(-c2cccc(C(F)(F)F)c2)nc2ncccn12)c1ccc(F)cc1` [Compound no. 33, N-(4-fluorophenyl)-N-methyl-2-[3-(trifluoromethyl)phenyl]imidazo[1,2-a]pyrimidine-3-carboxamide], in the assay on Diabetic Hamster, the inhibition in vivo at 41 mg/kg amounted to 20%. Further, the fold induction at 10 µM at human TGR5 [1] is above 4. This compound also gave a 50% effective concentration (EC50) on human TGR5 [2] of 155 nM. In assay [3], the “Fold increase in GLP Release” value came out at 1.83 fold.

Turning to `CN(C(=O)c1c(-c2cccc(C#N)c2)nc2ncccn12)c1ccc(Cl)cc1` [Compound no. 36, N-(4-chlorophenyl)-2-(3-cyanophenyl)-N-methylimidazo[1,2-a]pyrimidine-3-carboxamide], the inhibition in vivo at 38 mg/kg in the assay on Diabetic Hamster (single oral dose 38 mg/kg) came out at 8%. The compound further came in with a fold induction at 10 µM on human TGR5 [1] of 2 to 3. As for `CC(C)N(C(=O)c1c(-c2ccc(F)cc2)nc2ncccn12)c1ccc(Cl)cc1` [Compound no. 65, N-(4-chlorophenyl)-2-(4-fluorophenyl)-N-(propan-2-yl)imidazo[1,2-a]pyrimidine-3-carboxamide], the inhibition in vivo at 41 mg/kg in the assay with Diabetic Hamster amounted to 10%. Moreover, the fold induction at 10 µM at human TGR5 [1] was in the range of 3 to 4. `CN(C(=O)c1c(-c2ccc(O)cc2)nc2ncccn12)c1ccc(Cl)cc1` [compound 30, N-(4-chlorophenyl)-2-(4-hydroxyphenyl)-N-methylimidazo[1,2-a]pyrimidine-3-carboxamide] registered a fold induction at 10 µM at human TGR5 [1] of 3 to 4. Besides, the “Fold increase in GLP Release” value in assay [3] is 1.69 fold. Regarding `CN(C(=O)c1c(-c2ccc(F)cc2)nc2ncccn12)c1ccc(F)cc1F` [compound 40, N-(2,4-difluorophenyl)-2-(4-fluorophenyl)-N-methylimidazo[1,2-a]pyrimidine-3-carboxamide], the fold induction at 10 µM at human TGR5 [1] is 2 to 3. As to `COc1ccc(-c2nc3ncccn3c2C(=O)N(C)c2ccc(F)cc2)cc1F` [compound 41, 2-(3-fluoro-4-methoxyphenyl)-N-(4-fluorophenyl)-N-methylimidazo[1,2-a]pyrimidine-3-carboxamide], the fold induction at 10 µM on human TGR5 [1] was 2 to 3. In turn, `CN(C(=O)c1c(-c2ccc(O)c(F)c2)nc2ncccn12)c1ccc(F)cc1` [compound 42, 2-(3-fluoro-4-hydroxyphenyl)-N-(4-fluorophenyl)-N-methylimidazo[1,2-a]pyrimidine-3-carboxamide] showed a fold induction at 10 µM on human TGR5 [1] of 2 to 3. On the same count and under the same terms, the result for `COc1ccc(-c2nc3ncccn3c2C(=O)N(C)c2ccc(F)cc2F)cc1F` [compound 43, N-(2,4-difluorophenyl)-2-(3-fluoro-4-methoxyphenyl)-N-methylimidazo[1,2-a]pyrimidine-3-carboxamide] reads 1.5 to 2. In turn, `COc1ccc(-c2nc3ncccn3c2C(=O)N(C)c2ccc(Cl)cc2)cc1F` [compound 44, N-(4-chlorophenyl)-2-(3-fluoro-4-methoxyphenyl)-N-methylimidazo[1,2-a]pyrimidine-3-carboxamide] displayed a fold induction at 10 µM on human TGR5 [1] of 3 to 4. `COc1ccc(-c2nc3ncccn3c2C(=O)N(C)c2ccc(F)c(Cl)c2)cc1F` [compound 45, N-(3-chloro-4-fluorophenyl)-2-(3-fluoro-4-methoxyphenyl)-N-methylimidazo[1,2-a]pyrimidine-3-carboxamide]: the fold induction at 10 µM on human TGR5 [1] is above 4. `CN(C(=O)c1c(Oc2ccccc2)nc2ncccn12)c1ccc(Cl)cc1` [compound 47, N-(4-chlorophenyl)-N-methyl-2-phenoxyimidazo[1,2-a]pyrimidine-3-carboxamide] yielded a fold induction at 10 µM at human TGR5 [1] of 3 to 4.

On to `CN(C(=O)c1c(Oc2ccc(Cl)cc2)nc2ncccn12)c1ccc(Cl)cc1` [compound 48, 2-(4-chlorophenoxy)-N-(4-chlorophenyl)-N-methylimidazo[1,2-a]pyrimidine-3-carboxamide], for which the fold induction at 10 µM on human TGR5 [1] fell in the range of 2 to 3.

For `COc1ccc(Oc2nc3ncccn3c2C(=O)N(C)c2ccc(Cl)cc2)cc1` [compound 49, N-(4-chlorophenyl)-2-(4-methoxyphenoxy)-N-methylimidazo[1,2-a]pyrimidine-3-carboxamide], the fold induction at 10 µM on human TGR5 [1] was 3 to 4. The compound `CN(C(=O)c1c(Oc2ccc(Cl)cc2)nc2ncccn12)c1ccc(F)cc1` [compound 51, 2-(4-chlorophenoxy)-N-(4-fluorophenyl)-N-methylimidazo[1,2-a]pyrimidine-3-carboxamide] displayed a fold induction at 10 µM at human TGR5 [1] of 2 to 3. The same measure, in the same setting: the result for `COc1ccc(N(C)C(=O)c2c(Oc3ccc(F)cc3)nc3ncccn23)cc1` [compound 52, 2-(4-fluorophenoxy)-N-(4-methoxyphenyl)-N-methylimidazo[1,2-a]pyrimidine-3-carboxamide] reads 3 to 4. On to `O=C(c1c(-c2ccc(F)cc2)nc2ncccn12)N(c1ccc(Cl)cc1)C1CC1` [compound 136, N-(4-chlorophenyl)-N-cyclopropyl-2-(4-fluorophenyl)imidazo[1,2-a]pyrimidine-3-carboxamide], for which the fold induction at 10 µM on human TGR5 [1] was in the range of 3 to 4.
